These results are taken from patent US20100273189A1, “NON SEPARATION ASSAYS WITH SELECTIVE SIGNAL INHIBITORS” (BECKMAN COULTER, INC., priority 2009, published 2010).

This assay addresses T1, biotinylated HRP (Armoracia rusticana, UniProt P00433).
T1 construct: purchased Roche Diagnostics, Indianapolis, Ind., USA
T1 sequence (P00433 31-338 limits assumed): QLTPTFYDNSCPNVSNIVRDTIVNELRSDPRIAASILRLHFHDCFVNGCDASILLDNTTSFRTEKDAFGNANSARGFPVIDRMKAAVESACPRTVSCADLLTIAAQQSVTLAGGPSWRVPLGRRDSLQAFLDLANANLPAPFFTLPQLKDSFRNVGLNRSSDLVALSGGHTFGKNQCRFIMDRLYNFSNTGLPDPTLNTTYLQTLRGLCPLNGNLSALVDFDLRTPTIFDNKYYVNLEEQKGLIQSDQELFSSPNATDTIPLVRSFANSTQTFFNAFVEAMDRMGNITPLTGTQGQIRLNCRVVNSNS
In words: Model system for selection of SSIA (M280 btn-BSA-AK1-streptavidin particles + Btn-HRP:HRP). The conditions noted are these: for S/S0: Btn-HRP 0 ng/mL vs 0; for S/S0 / S1/S0 / S2/S0 / S3/S0 / S4/S0 / effect in the model system / utility as SSIA: SSIA 100 μM; for B-HRP0 light intensity: Btn-HRP 0 ng/mL; for B-HRP0 light intensity / B-HRP1 light intensity / B-HRP10 light intensity / B-HRP100 light intensity / B-HRP250 light intensity: total HRP 500 ng/mL, SSIA final 100 μM; for S1/S0: Btn-HRP 1 ng/mL vs 0; for B-HRP1 light intensity: Btn-HRP 1 ng/mL; for S2/S0: Btn-HRP 10 ng/mL vs 0; for B-HRP10 light intensity: Btn-HRP 10 ng/mL; for S3/S0: Btn-HRP 100 ng/mL vs 0; for B-HRP100 light intensity: Btn-HRP 100 ng/mL; for S4/S0: Btn-HRP 250 ng/mL vs 0; for B-HRP250 light intensity: Btn-HRP 250 ng/mL; for effect in the model system / utility as SSIA: conclusion in words. Format: biochemical. On the procedure:
The model system uses a microparticle conjugated to BSA (bovine serum albumin) labeled with a […] and acridan ketenedithioacetal chemiluminescent label (AK1) as the chemiluminescent-labeled sbp, and biotinylated HRP as the activator-labeled specific binding pair. In the model system, varying amounts of Btn-HRP is added to the chemiluminescent-labeled specific binding pair at 0, 1, 10, 100 and 250 ng/mL. Additional unlabeled HRP is added to reach a total HRP of concentration of 500 ng/mL in each reaction mixture. The unlabeled HRP in combination with the activator-labeled sbp was provided to the chemiluminescent-labeled sbp microparticles to emulate sample. A compound for assessment as an SSIA was also added. This reaction mixture of the model system is then triggered by addition of trigger solution in a manner of assays of the present disclosure.
To prepare the chemiluminescent-labeled sbp on microparticles, Bovine Serum Albumin (BSA) was biotinylated with 4× molar excess of biotin-LC-sulfoNHS (Pierce Biotechnology Inc., Rockford, Ill., USA). Unbound reactants were removed via desalting or dialysis. The biotin-BSA was then reacted with a 5× molar excess of acridan ketenedithioacetal AK1 in 20 mM sodium phosphate pH 7.2: DMSO 75:25, v/v) followed by desalting in the same buffer. The dual labeled (biotin and AK1) BSA was then coupled with tosyl activated M-280 microparticles (Invitrogen Corporation, Carlsbad, Calif., USA) in a 0.1 M borate buffer pH 9.5 at a concentration of ca. 20 μg labeled BSA per mg of microparticles for 16-24 h at 40° C. After coupling the microparticles were stripped for 1 h at 40° C. with 0.2 M TRIS base, 2% SDS, pH ˜11. The stripping process was repeated one additional time. Microparticles were then suspended in a 0.1% BSA/TRIS buffered saline (BSA/TBS) buffer and streptavidin (SA) was added at approximately 15 μg SA per mg microparticles. Streptavidin was mixed with the microparticles for 45-50 min at room temperature. The microparticles were then washed three times and suspended in the same BSA/TBS.
HRP, (Roche Diagnostics, Indianapolis, Ind., USA) was biotinylated with 4× molar excess of biotin-LC-sulfoNHS (Pierce Biotechnology Inc., Rockford, Ill., USA). Unbound reactants were removed via desalting or dialysis.
Each SSIA compound for assessment was dissolved in Buffer II at a concentration at least 10× of final concentration of the reaction mixture (after the addition of the trigger solution)
Paramagnetic particles (PMP): (M280)-(btn-BSA-AK)-(Streptavidin);
Sample Emulator: B-HRP:HRP; 500 ng/mL total with titration of B-HRP:HRP at Total HRP concentration of 500 ng/mL, with Btn-HRP variations: 0, 1, 10, 100 and 250 ng/mL.
SSIA: According to tables below in BUFFER II targeted to give a final concentration of 100 μM.
Trigger solution A is defined above.
5 μl of 1 mg/ml of dual-labeled (biotin and AK1) BSA M280 particles were mixed with 45 μl of working concentration SSIA in Buffer II. The assay volume brought to […] by adding 15 μl of Buffer II. 15 μl of sample containing Btn-HRP:HRP at different ratios (The amount of biotinylated-HRP varied from 0, 1, 10, 100 and 250 ng/mL) was added. The reaction mixture was incubated for 30 min at 37° C., then 100 μL of trigger solution was added and the light intensity recorded. Total volume of reaction mixture, including trigger solution was […] with a final concentration of 100 μM of SSIA.

Regarding `Cc1c(C)c2c(c(C)c1O)CC[C@@](C)(CCC[C@H](C)CCC[C@H](C)CCCC(C)C)O2` (racemic) [(+/−)-alpha-Tocopherol, (±)-a-Tocopherol], the S/S0 is listed as 1, the B-HRP0 light intensity is 2,772, the S1/S0 was determined as 2.3 and the B-HRP1 light intensity is 6,468. Further, the S2/S0 is 452.1, the B-HRP10 light intensity is 1,253,187, the S3/S0 came out at 3088.2 and the B-HRP100 light intensity is on record as 8,560,469. In addition, the S4/S0 was 3473.4 and the B-HRP250 light intensity is 9,628,184.

For the molecule `O=C(O)CCCC[C@@H]1CCSS1` (racemic) [Lipoic Acid], the S/S0 is recorded as 1, the B-HRP0 light intensity was 35,016, the S1/S0 worked out at 2 and the B-HRP1 light intensity was 71,751. The S2/S0 is given as 70, the B-HRP10 light intensity is 2,450,949, the S3/S0 worked out at 246.9 and the B-HRP100 light intensity was 8,647,037. Moreover, the S4/S0 amounted to 252.7, the B-HRP250 light intensity is 8,847,921 and the “effect in the model system / utility as SSIA” value is reported as “no effect”.

In the case of `Oc1ccc(O)c(Cl)c1` [2-chloro-1,4-dihydroxybenzene], the S/S0 was 1, the B-HRP0 light intensity is 3,571, the S1/S0 came to 1.1 and the B-HRP1 light intensity is 4,007. Moreover, the S2/S0 is 52.9, the B-HRP10 light intensity was 188,920, the S3/S0 worked out at 170.8 and the B-HRP100 light intensity is 610,053. Besides, the S4/S0 is 245.3, the B-HRP250 light intensity was 875,831 and the “effect in the model system / utility as SSIA” value is on record as “demonstrating utility as SSIA”.

`Nc1ccc(C(=O)O)cc1O` [4-Amino-3-hydroxybenzoic acid, 4-amino-3-hydroxybenzoic acid]: the S/S0 is 1, the B-HRP0 light intensity was found to be 972, the S1/S0 is recorded as 2.9 and the B-HRP1 light intensity is given as 2,808. The S2/S0 was determined as 454.2, the B-HRP10 light intensity is recorded as 441,455, the S3/S0 came out at 6076.7 and the B-HRP100 light intensity is recorded as 5,906,521. Also, the S4/S0 came to 6587.9, the B-HRP250 light intensity was 6,403,425 and the “effect in the model system / utility as SSIA” value was “demonstrating utility as SSIA”.

Regarding `Cl.Nc1ccc(O)cc1O` [4-aminoresorcinol HCl, 4-aminoresorcinol hydrochloride], the S/S0 was 1, the B-HRP0 light intensity came to 675, the S1/S0 came to 1.7 and the B-HRP1 light intensity is recorded as 1,163. Moreover, the S2/S0 stood at 110.8, the B-HRP10 light intensity is 74,764, the S3/S0 was determined as 489 and the B-HRP100 light intensity was 330,056. Further, the S4/S0 was 384.5, the B-HRP250 light intensity was 259,541 and the “effect in the model system / utility as SSIA” value is recorded as “demonstrating utility as SSIA”.

`Oc1ccc(Cl)cc1O` [4-chlorocatechol]: the S/S0 turned out to be 1, the B-HRP0 light intensity was found to be 93, the S1/S0 is 2.2 and the B-HRP1 light intensity is recorded as 205. Also, the S2/S0 was 14.8, the B-HRP10 light intensity is 1,373, the S3/S0 amounted to 4910.8 and the B-HRP100 light intensity is given as 456,707. The S4/S0 came to 13558.5, the B-HRP250 light intensity was 1,260,937 and the “effect in the model system / utility as SSIA” value is recorded as “demonstrating utility as SSIA”.

With `CC1(C)OC[C@@H]([C@H]2OC(=O)C(O)=C2O)O1` [5,6iso-propyliene ascorbic acid, 5,6-Isopropylidene-L-Ascorbic acid], the S/S0 came to 1, the B-HRP0 light intensity was 264, the S1/S0 amounted to 3.6 and the B-HRP1 light intensity worked out at 961. The S2/S0 was 112.3, the B-HRP10 light intensity is listed as 29,645, the S3/S0 is reported as 18626.9 and the B-HRP100 light intensity was 4,917,499. Besides, the S4/S0 is given as 33275, the B-HRP250 light intensity is given as 8,784,595 and the “effect in the model system / utility as SSIA” value is “demonstrating utility as SSIA”.

In the case of `Cc1c(O)cc2c(c1C)O[C@](C)(CCC[C@H](C)CCC[C@H](C)CCCC(C)C)CC2` [(+)-gamma-Tocopherol, (+)-y-Tocopherol], the S/S0 is on record as 1, the B-HRP0 light intensity is reported as 6,051, the S1/S0 was found to be 1.8 and the B-HRP1 light intensity is 10,924. The S2/S0 was 278.7, the B-HRP10 light intensity is on record as 1,686,079, the S3/S0 worked out at 1437.5 and the B-HRP100 light intensity was 8,698,069. For the same molecule, the S4/S0 worked out at 1699.4 and the B-HRP250 light intensity is given as 10,282,504.

`CCCCCCCCCCCCCCCC(=O)OC[C@H](O)[C@H]1OC(=O)C(O)=C1O` [Ascorbic Acid 6-palmitate, L-Ascorbic acid 6-Palmitate]: the S/S0 is recorded as 1, the B-HRP0 light intensity amounted to 81, the S1/S0 came out at 4 and the B-HRP1 light intensity is given as 327. Further, the S2/S0 stood at 502.4, the B-HRP10 light intensity is listed as 40,863, the S3/S0 is 100662.3 and the B-HRP100 light intensity is reported as 8,187,204. For the same molecule, the S4/S0 stood at 125193.6, the B-HRP250 light intensity is given as 10,182,411 and the “effect in the model system / utility as SSIA” value was “demonstrating utility as SSIA”.

For the molecule `N[C@@H](CS)C(=O)O` [Cysteine], the S/S0 turned out to be 1, the B-HRP0 light intensity was 35,695, the S1/S0 worked out at 1.6 and the B-HRP1 light intensity is 58,203. Also, the S2/S0 is 69.6, the B-HRP10 light intensity is listed as 2,483,411, the S3/S0 was 256.3 and the B-HRP100 light intensity is given as 9,147,371. Moreover, the S4/S0 was 285.5, the B-HRP250 light intensity is given as 10,190,505 and the “effect in the model system / utility as SSIA” value is “no effect”.
